From publication PMC10846744, “Cathelicidin peptide analogues inhibit EV71 infection through blocking viral entry and uncoating” (PLOS Pathogens, 2024) come the findings set out here.

For assay [1], the system named is EV71 subgenomic replicon. As to the kind of experiment: EV71 subgenomic replicon (SGR) Renilla luciferase assay. The class given is cell-based, enterovirus 71 (EV71). The following applies: RD cells transfected with SGR RNA, 1.5 μM peptide for 3 or 6 hrs. On the procedure: Fig 3 LL-18 and FF-18 inhibit viral attachment and internalization. (A) EV71 virus (MOI = 1) was pre-incubated with 1.5 μM LL-18, FF-18 or 12 μM 12s before they were used to incubate with RD cells at 4°C for 1 hr. Viral RNA was then determined with q-RT-PCR. Values are normalized to vehicle treated cells. ***, P<0.001. (B) EV71 virus (MOI = 1) was pre-incubated with 1.5 μM LL-18, FF-18 or 12 μM 12s before they were used to incubate with RD cells at 4°C for 1 hr followed by 37°C incubation for 1 hr. Viral RNA was then determined with q-RT-PCR. Values are normalized to vehicle treated cells. ***, P<0.001. (C) Diagram of EV71 subgenomic replicon. Part of the structural genes was replaced with a Renilla luciferase reporter gene. (D) RD cells transfected with EV71 SGR RNA were treated with 1.5 μM LL-18 or FF-18 for 3 hrs (left panel) or 6 hrs (right panel) before luciferase activity was measured. ns, not significant. […]
Full-length NanoLuc-EV71 reporter viruses and subgenomic EV71 replicon (SGR) were described previously. […] Nano luciferase and Renilla luciferase were measured with Nano-Glo or Renilla luciferase assay system from Promega (Madison, WI). Luminescence signals were measured using a BioTek Neo2 microplate reader.

Assay [2] has as its system EV71 virus. The assay can be described thus: Pre-incubation of RD cells with peptide, wash-out, then EV71 infection. The format is cell-based, enterovirus 71 (EV71). The following applies: RD cells incubated with peptide 2 hrs, EV71 MOI = 1, cell viability 24 h.p.i (S3A Fig). On the procedure:
Supplementary file ppat.1011967.s003.tif: S3 Fig LL-18 binds directly to virus particles. (A) RD cells were pre-incubated with indicated amounts of LL-18, FF-18, DL-37, or LL-37 for 2 hrs before they were washed extensively to remove unbound peptides. Cells were then infected with the EV71 virus (MOI = 1) and cell viability was determined 24 h.p.i. Values were normalized to uninfected RD cells. ***, P<0.001. (B). ^1H NMR spectra of FF-18 peptide in the absence or presence of EV71 virus (green line) or CVB5 virus (red line). (TIF) Click here for additional data file.

Assay [3] concerns CVB5 virus. The assay can be described thus: 1H NMR titration of peptide with CVB5 virus. The following applies: molar ratio peptide to virus 90:1, 800 MHz, 298k. The class given is binding, coxsackievirus B5. The procedure:
The NMR titrations were performed on a Bruker 800 MHz (Avance NEO) spectrometer equipped with cryo-probe. The molar ratio of the peptide to the virus was 90:1. The experiments were recorded using zgespg pulse for 128 scans at 298k and the results were analyzed by Topspin.

In assay [4] the test system is EV71 virus-SCARB2 interaction. As to the kind of experiment: Virus-SCARB2 co-immunoprecipitation competition. The class given is binding. To be noted: SCARB2-Flag 293T lysates incubated with EV71 virus with or without compound, anti-Flag IP, anti-VP1 immunoblotting. The procedure:
Fig 5 LL-18 interferes with virus-SCARB2 interaction. (A) Molecular docking model of LL-18 with EV71 virion. […] The amino acid residues of capsid protein interacting with both LL-18 and SCARB2 are indicated (right panel). (B) 293T cells expressing SCARB2-Flag were lysed and cell lysates were incubated with EV71 virus in the absence or presence of the indicated amount of LL-18. Cell lysates were then immunoprecipitated with anti-Flag antibody and the precipitated virus was determined with anti-VP1 antibody. (C) 293T cells expressing Annexin 2-Flag were lysed and cell lysates were incubated with EV71 virus in the absence or presence of LL-18. Cell lysates were then immunoprecipitated with anti-Flag antibody and the precipitated virus was determined with anti-VP1 antibody.
Coimmunoprecipitation was performed as previously described. Briefly, VP1, VP2, and VP3 were PCR amplified and cloned into pcDNA3.1 with an HA tag. LL-18 or LL-37 encoding oligonucleotides were inserted into an eGFP-expressing construct (pHW200-eGFP). […] After washing with wash buffer (0.05% Triton X-100) six times, samples were analyzed by Western blotting.
Supplementary file ppat.1011967.s004.tif: S4 Fig Compound 12s interferes with virus-SCARB2 interaction. […] Cell lysates were then immunoprecipitated with anti-Flag antibody and the precipitated virus was determined with anti-VP1 antibody. […]

Assay [5] concerns EV71 P30 virus. As to the kind of experiment: Resistance induction assay (30 passages). The format is cell-based, enterovirus 71 (EV71). To be noted: 20 passages at 0.9 μM then 10 at 1.5 μM LL-18; 1.5 μM LL-18 pre-incubation 1 h, RD cell viability 24 h.p.i. On the procedure:
(A) Diagram of resistance induction assay. (B) RD cells infected with parental EV71 or P30 with or without 1.5 μM LL-18 pre-incubation were tested for cell viability 24 h.p.i. ns, not significant; ***, P<0.001.
Resistance induction assay was conducted as previously reported. Briefly, virus was first successively passaged in RD cells for 20 generations in the presence of a lower concentration of LL-18 (0.9 μM). The progeny virus was then passaged for another 10 generations with 1.5 μM LL-18, and the progeny virus was designated as P30. The parental EV71 and P30 with the same titer were pre-incubated with 1.5 μM LL-18 for 1 h and then tested for cell viability 24 h.p.i.

Where no end group is shown, it is not given here.

Regarding FRKSKEKIGKFFKRIVQRIFDFLRNLV [FF-18], the “inhibition of EV71 SGR luciferase (viral translation or replication)” value in assay [1] is reported as “no inhibition”. In addition, in assay [2], the “protection when cells are pre-incubated with peptide and unbound peptide washed out” value was “EV71 could still infect these treated cells and cause cell death”.
Take FRKSKEKIGKLFKRIVQRILDFLRNLV [LL-18]: in assay [1], the “inhibition of EV71 SGR luciferase (viral translation or replication)” value was “no inhibition”. The “protection when cells are pre-incubated with peptide and unbound peptide washed out” value in assay [2] was “EV71 could still infect these treated cells and cause cell death”. Also, the “interaction of peptide with CVB5 virus by 1H 1D NMR (amide region)” value in assay [3] is listed as “little effect on the spectra of peptides”. In assay [4], the “inhibition of EV71 virus binding to SCARB2” value is recorded as “inhibit virus binding to SCARB2 in a dose-dependent manner”. In addition, the “susceptibility of P30 virus to LL-18” value in assay [5] was “still as susceptible to LL-18 as the parental virus”.
